Test results published in US8772318B2, “Methods and compositions related to targeting monoacylglycerol lipase” (The Scripps Research Institute, priority 2008, dated 2014).
“Also recorded” adds a separate entry of the source.

Columns and labels:
[1] = system: human cancer cell lines (C8161, SKOV3, 231MFP, MUM2C, OVCAR3); experiment: Lipid measurements in cancer cells; type: cell-based
Method: Pharmacological inhibition of MAGL in cancer cells. Pharmacological inhibition studies were conducted as described previously (Chiang et al., Chem. Biol. 13:1041-1050, 2006). Cancer cells were maintained in RPMI medium 1640 with 10% (v/v) fetal calf serum at 37° C. in a humidified atmosphere of 5% CO2/95% air. At 80% confluency, cells were trypsinized and counted using a hemocytometer, and 1×10^6 cells were plated in 6 cm dishes (subconfluent). […] After incubation for 4 hr, the cells were harvested and analyzed by ABPP or LC-MS.
Lipid measurements in cancer cells. Lipid measurements were conducted similarly to protocols described previously (Chiang et al., 2006; supra). Cancer cells were grown in serum-free media for 4 hrs to minimize the contribution of serum-derived lipids to the cellular profiles. The cells (1×10^6 cells/6 cm dish, 80% confluency) were washed with twice with phosphate buffer saline (PBS), isolated by centrifugation at 1,400×g, and dounce-homogenized in 4 ml of a 2:1:1 mixture of chloroform:methanol:Tris buffer. Samples were homogenized in the presence of the following synthetic standards: C12:0 MAGE (10 nmol), C15:0 FFA (10 nmol). Organic and aqueous layers were separated by centrifugation at 2000×g for 5 min and the organic layer was collected. The aqueous layer was acidified (for metabolites such as LPA) by adding 5% formic acid, followed by the addition of 2 ml chloroform. The mixture was vortexed, and the organic layers were combined, dried down under N2 and dissolved in 100 μl chloroform, of which 30 μl was analyzed by LC-MS.
LC-MS analysis was performed by using an Agilent 1100 LC-MSD SL instrument. […] Mobile phase A was composed of a 95:5 ratio of water:methanol, and mobile phase B consisted of 2-propanol, methanol, and water in a 60:35:5 ratio. Solvent modifiers such as 0.1% formic acid and 0.1% ammonium hydroxide were used to assist ion formation as well as to improve the LC resolution in both positive and negative ionization modes, respectively. The flow rate for each run started at 0.1 ml/min for 5 min, to alleviate backpressure associated with injecting chloroform. The gradient started at 0% B and increased linearly to 100% B over the course of 45 min with a flow rate of 0.4 ml/min, followed by an isocratic gradient of 100% B for 17 min at 0.5 ml/min before equilibrating for 8 min at 0% B with a flow rate of 0.5 ml/min. MS analysis was performed with an electrospray ionization (ESI) source. The capillary voltage was set to 3.0 kV, and the fragmentor voltage was set to 100 V. The drying gas temperature was 350° C., the drying gas flow rate was 10 L/min, and the nebulizer pressure was 35 psi.
Lipidomic analysis was performed in both targeted and untargeted mode by LC-MS analysis. Standard lipid classes were quantitated by targeting using selected ion monitoring (SIM) (except for very high-abundance metabolites which were quantitated by untargeted analysis) and identities of metabolites were confirmed by coelution of metabolites with their respective standards and mass accuracy to within 10 ppm as determined with an accurate mass Agilent 6520 Accurate Mass QTOF-MS-MS. These lipids were quantified by measuring the area under the peak and were normalized to an internal standard (C12:0 MAGE in positive mode or C15:0 FFA in negative mode). […]

[2] = system: human cancer cell lines (C8161, SKOV3, 231MFP, MUM2C, OVCAR3); experiment: Cell migration assay (Transwell); type: cell-based; conditions: for migration of cancer cells: 100 μM, 4 hr preincubation and coincubation with migration; for migration of MUM2C and OVCAR3 cells / migratory activity of shMAGL or JZL184-treated MAGL-OE cancer cells: 20 μM; for impaired migration of shMAGL cancer cells: 100 nM
Method: Cell migration, cell survival, and invasion studies. Migration assays were performed in Transwell chambers (Corning) with 8 μm pore-sized membranes coated with 10 μg/ml collagen for 4 h at 37° C. A total of 24 hr before the start of the migration assay, cancer cell lines were plated at a concentration of 1×10^6 cells per 6 cm dish. At the start of the migration assay, cells were harvested by washing two times with PBS and were then serum starved in serum-free media for 4 hr. Inhibitor, lipid or vehicle (0.1% DMSO) were preincubated with the cells during this 4 h time. Serum-starved cells were trypsinized, spun at 1400×g for 3 min, resuspended, and counted. 50,000 cells were seeded in the upper chamber of the transwells in 200 μl serum-free media (containing inhibitor, lipid or vehicle). Inhibitor, lipid or vehicle was also added to the lower chamber, and cells were allowed to migrate for 5 h (for C8161 and 231MFP cells) or 20 hr (SKOV3, MUM2C and OVCAR3 cells). The filters were then fixed and stained with Diff-Quik (Dade Behring). Cells that had not migrated through the chamber were removed with a cotton ball. The cells that migrated were counted at a magnification of 400×, and 4 fields were independently counted from each migration chamber. An average of cells in 4 fields for one migration chamber represents n=1.

MAGL [3] = target: T1, MAGL (Mus musculus, UniProt O35678); experiment: Competitive ABPP, mouse brain membrane proteome; type: biochemical
T1 construct: from tissue; host or cells: mouse brain membrane fraction (C57Bl/6 mice for the in vivo studies)
T1 sequence (O35678 1-303): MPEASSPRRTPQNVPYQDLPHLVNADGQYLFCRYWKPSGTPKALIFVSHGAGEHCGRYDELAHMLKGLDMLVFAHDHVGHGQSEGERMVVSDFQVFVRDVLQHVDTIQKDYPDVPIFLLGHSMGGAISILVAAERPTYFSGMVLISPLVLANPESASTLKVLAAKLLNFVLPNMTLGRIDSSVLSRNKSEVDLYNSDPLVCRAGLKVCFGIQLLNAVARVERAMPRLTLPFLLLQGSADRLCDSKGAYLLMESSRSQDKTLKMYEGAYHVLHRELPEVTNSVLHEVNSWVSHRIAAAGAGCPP
Excerpt: First, serine hydrolases are susceptible to covalent inactivation by specific chemical groups that show little or no cross-reactivity with other enzyme classes. […] Second, the functional state of serine hydrolases can be collectively profiled in native biological systems using activity-based protein profiling (ABPP) methods (Cravat et al., Annu Rev Biochem 77:383-414, 2008). ABPP of serine hydrolases uses reporter-tagged fluorophosphonates (FPs), which serve as general activity-based probes for this large and diverse enzyme class (Liu et al., Proc. Natl. Acad. Sci. U.S.A. 96:14694-9, 1999). When performed in a competitive mode, ABPP can serve as a powerful screen to evaluate the potency and selectivity of small-molecule enzyme inhibitors directly in complex proteomes. The screen can be performed as described in the art, e.g., Liu et al., Proc. Natl. Acad. Sci. U.S.A. 96:14694-9, 1999; Li et al., J. Am. Chem. Soc. 129:9594-5, 2007; Leung et al., Nat. Biotech. 21:687-91, 2003; and Greenbaum et al., Mol. Cell. Proteomics 1:60-68, 2002.
Competitive activity-based protein profiling (ABPP) experiments. In vitro inhibitor selectivity was examined using a competitive ABPP method as described in the art (e.g., Li et al., J. Am. Chem. Soc. 129:9594-5, 2007; and Leung et al., Nat. Biotech. 21:687-91, 2003). Briefly, mouse brain membrane proteomes, prepared as described herein, were diluted to 1 mg/ml in PBS and pre-incubated with varying concentrations of inhibitors (1 nM to 10 μM) for 30 min at 37° C. prior to the addition of a FP-rhodamine at a final concentration of 2 μM in a 50 μl of total reaction volume. After 30 min at room temperature, the reactions were quenched with 4×SDS-PAGE loading buffer, boiled for 5 min at 90° C., subjected to SDS-PAGE, and visualized in-gel using a flatbed fluorescence scanner.
Every 10 min, 50 ul of the reaction was removed and treated with FP-rhodamine (2 μM) for 2 min, quenched with 4×SDS-PAGE loading buffer, and boiled for 5 min at 90° C. The combined reactions were subjected to SDS-PAGE and visualized in-gel using a flatbed fluorescence scanner. The percentage activity remaining was determined by measuring the integrated optical density corresponding to the MAGL or FAAH bands and the results were fit to an exponential curve to determine the pseudo-first order rate constants.

MAGL [4] = target: T2, MAGL (Homo sapiens, UniProt Q99685); experiment: shRNA knockdown of MAGL, activity by ABPP and C20:4 MAG hydrolysis; type: cell-based; conditions: aggressive cancer lines, ABPP
T2 construct: endogenous in cells; host or cells: human cancer lines (C8161, MUM2B, MUM2C, SKOV3, OVCAR3, 231MFP, MCF7)
T2 sequence (Q99685 1-303): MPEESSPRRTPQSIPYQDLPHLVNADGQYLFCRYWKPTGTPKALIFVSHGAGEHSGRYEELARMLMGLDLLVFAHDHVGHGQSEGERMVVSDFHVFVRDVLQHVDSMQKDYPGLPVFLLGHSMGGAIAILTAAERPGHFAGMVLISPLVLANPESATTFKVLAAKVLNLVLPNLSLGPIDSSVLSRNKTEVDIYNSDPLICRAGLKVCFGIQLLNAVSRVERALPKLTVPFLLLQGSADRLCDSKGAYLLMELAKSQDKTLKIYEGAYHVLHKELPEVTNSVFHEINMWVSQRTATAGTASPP
Method: ABPP and hydrolytic activity assays of cancer cell proteomes. Identification and comparative quantitation of serine hydrolase activities from cancer cell proteomes by ABPP-MudPIT or gel-based ABPP was conducted as previously described using FP-biotin (5 μM) and FP-rhodamine (2 μM), respectively (Jessani et al., Proc. Natl. Acad. Sci. U.S.A 99:10335-10340, 2002; and Jessani et al., Nat. Methods 2:691-697, 2005). C20:4 MAG hydrolytic activity assays were performed as described previously (Blankman et al., Chem. Biol. 14:1347-1356, 2007). For ABPP experiments, cell lysate proteomes were treated with 2 μM FP-rhodamine for 30 min at room temperature (50 μl total reaction volume). Reactions were quenched with one volume of standard 4×SDS/PAGE loading buffer (reducing), separated by SDS/PAGE (10% acrylamide), and visualized in-gel with a Hitachi FMBio IIe flatbed fluorescence scanner (MiraiBio). Integrated band intensities were calculated for the labeled proteins and averaged from three independent cell samples to determine the level of each enzyme activity. IC50 values were determined from dose-response curves from three trials at each inhibitor concentration by using SigmaPlot 10.0. MAGL expression was also assessed by western blotting using standard procedures.
RNA interference studies in human cancer cell lines. […]

[5] = aggressive melanoma, ovarian, breast cancer cells

CCOC(=O)[C@@]1(CCCCCCOc2ccc(Cl)cc2)CO1 [etomoxir]
FFA levels in cancer cells ([1]; 100 μM, 4 hr, exception C20:4 FFA, elevated in C8161 and SKOV3 cells): did not alter FFA levels
migration of cancer cells [2]: did not affect migration

COc1ccc(C(O)(c2ccc(OC)cc2)C2CCN(C(=O)Oc3ccc([N+](=O)[O-])cc3)CC2)cc1 [JZL175]
selectivity for MAGL over FAAH and ABHD6 (competitive ABPP) (MAGL [3]): selectivity for MAGL over both FAAH and ABHD6; also recorded: no or greatly reduced inhibitory activity on FAAH as well as ABHD6

COc1ccc(CN2CCNCC2)c(OC)c1OC [trimetazidine]
migration of cancer cells [2]: did not affect migration

pertussis toxin
enhanced migratory activity of MAGL-OE cancer cells ([2]; 100 ng/ml, 4 h): completely blocked

shMAGL1: short hairpin RNA oligonucleotide for MAGL, 5′-CAACTTTCAAGGTCCTTGC-3′ (SEQ ID NO:1) (expressed or natural sequence)
FFA levels in shMAGL cells [1, 5]: corresponding reductions
MAG levels in shMAGL cells [1, 5]: significant elevations
other serine hydrolase activities (MAGL [4]): unaffected

COc1ccc(C(=O)c2c(C)n(CCN3CCOCC3)c3cc(I)ccc23)cc1 [AM630]
FFA levels in shControl and shMAGL cancer cells ([1]; antagonist 1 μM, 4 hr): unchanged
migratory defect in shMAGL cancer cells ([2]; antagonist 1 μM, 4 hr): not rescued

CCCCCCCCCCCCCCCC(=O)O [palmitic acid]
migration of MUM2C and OVCAR3 cells ([2]; 4 h): increases the migration
migratory activity of shMAGL or JZL184-treated MAGL-OE cancer cells ([2]; 4 h): fully restored their migratory activity

CCCCCCCCCCCCCCCC(=O)OC[C@@H](O)COP(=O)(O)O [LPA]
impaired migration of shMAGL cancer cells ([2]; 4 hr): rescued the impaired migration

CCCCC[C@H](O)/C=C/[C@H]1[C@H](O)CC(=O)[C@@H]1C/C=C\CCCC(=O)O [PGE2, prostaglandin E2]
impaired migration of shMAGL cancer cells ([2]; 4 hr): rescued the impaired migration

CCCCCCCCCCCCCCCCCC(=O)O [stearic acid]
migration of MUM2C and OVCAR3 cells ([2]; 4 h): increases the migration
migratory activity of shMAGL or JZL184-treated MAGL-OE cancer cells ([2]; 4 h): fully restored their migratory activity
